Like-named read-outs stand apart in the source and are kept apart here.
Assays:
dopamine receptor = experiment: Affinity at the dopamine receptor; type: binding
[1] = system: delayed type hypersensitivity (picryl chloride induced foot pad swelling); experiment: Murine delayed type hypersensitivity (DTH) response, picryl chloride; type: in vivo, mouse (Balb/c); settings: for inhibition of DTH response: FIG. 8 legend
Procedure: The activity of ergoline compounds was also evaluated in a murine delayed-type hypersensitivity (DTH) assay. The DTH assay was performed in substantial accordance with the method set forth in Example 1. Briefly, mice were sensitized by topical administration of picryl chloride on day 1 of the assay. On day 4 paw size was determined and recorded and the paw was then challenged with picryl chloride. The challenged paw was remeasured on day 5 to quantitate the DTH response via the increase in paw size.
(§1) Male Balb/c mice (Charles River) weighing 20 to 25 g were used in all DTH studies. When adrenalectomized studies were carried out, sham surgery and adrenalectomized mice were obtained from the vendor. Animals were maintained on a 12:12 hour light:dark cycle. Mice were allowed ad lib access for food (Purina lab chow) and water (normal saline for adrenalectomized animals).
(§2) A DTH response was assessed by measuring the degree of rear foot pad swelling induced by picryl chloride. On day 0, mice were sensitized with 100 μl of 5% picryl chloride (in ethanol), which was applied to a shaved abdomen. Negative control groups were shaved but not sensitized. On day 3, mice were anesthetized with methoxyflurane, and the baseline rear foot pad thickness was measured with a micrometer (Mitutoyo) in μ, and was recorded in duplicate. Fifty μl of picryl chloride was then applied to each pad with a pipet (Rainen) while the animal was unconscious. The negative controls also received picryl chloride at this point to control for primary irritancy. Twenty-four hours later, the mice were sacrificed by CO2 asphyxiation and each rear foot pad was again measured in duplicate, and any evidence of foot pad swelling was calculated. The mean rear foot swelling change of both pads for each animal from days 3 to 4 was used as the index of immune function in the DTH assay.
(§3) Unless otherwise stated all animals were given four subcutaneous doses of test compound just prior to picryl chloride sensitization on day 0, on day 1 and day 2, and just prior to picryl chloride challenge on day 3. In a few experiments, compounds were administered via oral or intraperitoneal routes. All drugs were delivered as suspensions in 1% carboxy-methylcellulose (also contained 0.8% NaCl, 1% polysorbate-80, 1.4% benzyl alcohol). Carboxymethyl-cellulose (1%) was used in control injections.

inflammatory models = settings: cited from earlier work
[2] = system: carrageenan induced paw swelling; experiment: Carrageenan edema model (acute paw inflammation); type: in vivo, rat (Lewis)
α adrenergic receptors = settings: background; cited from earlier work
D-2 dopamine = settings: background; cited from earlier work
corticosterone = experiment: Serum/plasma corticosterone levels in mice; type: in vivo, mouse (Balb/C); settings: FIG. 10 Panel A; 1 and 3 hr. following injection
Source text: Dopamine agonists are known to elevate circulating glucocorticoid levels, via activation of the hypothalamo-pituitary-adrenal axis. […] Since glucocorticoids are potential endogenous anti-inflammatory substances, this action is one potential mechanism for the anti-inflammatory effect of the ergolines. However, in subsequent inflammation studies, the anti-inflammatory effects of D-1-isopropyl-6-n-propyl-8β-methylthiomethyl ergoline were retained in mice lacking an adrenal gland and therefore devoid of the increase in circulating corticosterone. (FIG. 10B)
Both Balb/C mice (male, approximately 20 g, Charles Rivers) and Lewis rats (male, approximately 200 g, Charles River or Harlan Sprague Dawley) were used in neuroendocrine studies. Animals were maintained on a 12:12 hour light:dark cycle and were allowed ad lib access for food (Purina lab chow) and water. Experimental groups consisted of 6 to 8 animals.
After dosing with test compounds, animals were sacrificed by decapitation at 1, 3, 8 or 24 hour intervals. Trunk blood was collected, allowed to clot and serum obtained after centrifugation (3000 rpm for 15 min.). Serum was aliquoted and stored at -70° C. for subsequent radioimmunoassays. Serum prolactin was determined by radioimmunoassay. Serum corticosterone levels were determined with a kit designed for such determinations and obtained from ICN.

[3] = system: dopamine receptor (DTH response); experiment: Reversal of DTH inhibition by dopamine receptor antagonists; type: in vivo, mouse
Procedure: as §1, §2, §3

[4] = system: lipoidal amine induced arthritis; experiment: Lipoidal amine induced polyarthritis (hind paw volume and weight); type: in vivo, rat (Lewis); settings: Rattus norvegicus
Procedure: Lipoidal amine induced polyarthritis is an animal arthritis model originally described by Chang, Y., et al. in Arthritis and Rheumatism 23:62-71 (1980). The lipoidal amine induced polyarthritis results from injection of N,N-dioctadecyl-N^1,N-bis(2-hydroxyethyl) propanediamine (7.5 mg/kg Lewis rat (220-225 g)), which is suspended in oil, intradermally at the base of the tail.

[5] = system: 5-HT induced paw swelling; experiment: Serotonin (5-HT) induced acute paw inflammation; type: in vivo, rat (Lewis); settings: FIG. 2
Procedure: In one such model, the acute paw inflammation model, rats were treated with test compounds one hour prior to plantar injection of a 50 μl volume of a phlogistic. Animals were sacrificed and paw weights were determined at a prescribed time interval following the plantar injections. When 1% carrageenan was used as the phlogistic, the time interval between injection and sacrifice was 3 hours. When serotonin (5-hydroxytryptamine (5-HT)) was used, as the phlogistic agent the time interval was one hour. When substance P was used, the time interval was 30 minutes. The acute paw inflammation model is described in more detail in Example 3.
Male Lewis rats (Charles River or Harlan Sprague Dawley) weighing 180 to 250 g were used in all acute inflammatory studies. Animals were maintained on a 12:12 hour light:dark cycle and were allowed ad lib access for food (Purina lab chow) and water. Experimental groups consisted of 5 or 6 rats.
Acute paw swelling was induced by the intraplantar injection of phlogistic agents into the left hind paw, with the uninjected right hind paw serving as the comparative control. One hour after dosing with test compound, 50 μl of serotonin (Sigma; 0.005 to 0.2 mg/ml in normal saline) or substance P (Sigma; 0.01 or 0.05 mg/ml in 10% thiorphan in normal saline) or carrageenan (Marine Colloidal or Sigma Type IV; 1% in normal saline) were injected under the skin of the left hind paw, while the animal was restrained in a plastic cone. Negative controls were given 50 μl intradermal injections of normal saline (serotonin or carrageenan assays) or 10% thiorphan (substance P assays) into the left hind paw. One hour following injection of serotonin, or 30 minutes following injection of substance P, or 180 minutes following injection of carrageenan, the animals were sacrificed by CO2 asphyxiation. The right and left hind paws were cut just proximal to the tibiotarsal joint and weighed. The difference in weight between an individual animal's left and right paws were used as an indicator of tissue swelling.
As indicated above, test compounds are administered as a one hour pretreatment. In one series of experiments, 24 hour and 48 hour drug pretreatment periods were used. Test compounds were dosed intraperitoneally as a suspension in 1% carboxymethylcellulose.

Parkinsonism = settings: background; cited from earlier work
[6] = Table 2, single oral dose 0.1 mg/kg
[7] = Table 2, single oral dose 0.3 mg/kg
[8] = Table 2, single oral dose 1.0 mg/kg
[9] = Table 2, single oral dose 3.0 mg/kg
[10] = Table 1, single oral dose 30.0 mg/kg
[11] = Table 2, single oral dose 30.0 mg/kg
[12] = Table 1, single oral dose 0.3 mg/kg
[13] = Table 1, single oral dose 1.0 mg/kg
[14] = Table 1, single oral dose 3.0 mg/kg
[15] = Table 1, single oral dose 10.0 mg/kg
[16] = Table 2, single oral dose 0.01 mg/kg
[17] = Table 2, single oral dose 0.03 mg/kg

SMILES: CCCCCN1C[C@H](CSC)C[C@@H]2c3cccc4[nH]cc(c34)C[C@H]21 [D-6-n-pentyl-8β-methylthiomethyl ergoline]
- affinity at the dopamine receptor (dopamine receptor): minimal affinity
- anti-inflammatory activity ([1]; FIGS. 7-9A studies): no anti-inflammatory activity

SMILES: CC(C)CC1C(=O)N2CCCC2C2(O)OC(NC(=O)C3C=C4c5cccc6[nH]c(Br)c(c56)CC4N(C)C3)(C(C)C)C(=O)N12 (stereo not drawn) [Bromocriptine, α-bromo-ergocryptine]
- basis of activity in inflammatory models of the literature (inflammatory models): due to immunosuppressive activity
- % Inhibition [2, 6]: 0%
- Paw Weight Difference [2, 6]: 0.923 ± 0.039 g
- % Inhibition [2, 7]: 0%
- Paw Weight Difference [2, 7]: 0.937 ± 0.060 g
- % Inhibition [2, 8]: 0%
- Paw Weight Difference [2, 8]: 0.803 ± 0.046 g
- % Inhibition [2, 9]: 0%
- Paw Weight Difference [2, 9]: 0.931 ± 0.067 g
- activity in the acute inflammation model ([2]; doses as high as 3 mg/kg, po): no activity
- action at α adrenergic receptors (α adrenergic receptors): act at α adrenergic receptors
- D-2 dopamine agonist activity (D-2 dopamine): D-2 dopamine agonists

SMILES: CC(C(=O)O)c1cccc(Oc2ccccc2)c1 (stereo not drawn) [Fenoprofen]
- effectiveness in suppressing inflammation compared with pergolide ([2]; 30 mg/kg): not as effective as pergolide
- % Inhibition [2, 10]: 52%
- Paw Weight Difference [2, 10]: 0.353 ± 0.043 g
- % Inhibition [2, 11]: 55%
- Paw Weight Difference [2, 11]: 0.379 ± 0.028 g

SMILES: CCCN1CC(CO)CC2Cc3n[nH]cc3CC21 (stereo not drawn) [Compound 10, 7-(5-n-propyl-trans-4,4a,5,6,7,8,8a, 9-Octahydro-2H-pyrazolo[3,4-g]quinoline) methanol]
- effect on plasma corticosterone (corticosterone): increase plasma cortiosterone
- reduction of paw swelling (DTH) ([1]; 3 mg/kg): statistically significant
- reduction of paw swelling (DTH) ([1]; 10 mg/kg): statistically significant

SMILES: CCN1CCCC1CNC(=O)c1cc(S(N)(=O)=O)ccc1OC (stereo not drawn) [Sulpiride]
- effect on inflammatory response in animals given 10 mg/kg of compound 10 ([3]; FIG. 9 Panel C, sulpiride 3, 10 and 30 mg/kg): partially restored the inflammatory response

SMILES: CCCN1CCC[C@H]2Cc3nc(N)ncc3C[C@@H]21 (racemic) [Compound 8, trans-(±)-2-amino-6-n-propyl-5,5a,6,7,8,9,9a,10-octahydropyrimido[4,5-g] quinoline]
- reduction of paw swelling (DTH) ([1]; 1 mg/kg): statistically significant decrease in inflammation
- inhibition of DTH response [1]: lack of inhibition

SMILES: CCCN1CC(CO)=C[C@H]2Cc3n[nH]cc3C[C@@H]21 (relative stereo) [Compound 9, 7-(5-n-propyl-trans-4,4a,5,6,8a,9-hexahydro-2H-pyrazolo[3,4-g)quinoline) methanol]
- reduction of paw swelling (DTH) ([1]; 3 mg/kg): statistically significant
- reduction of paw swelling (DTH) ([1]; 10 mg/kg): statistically significant
- inhibition of DTH response [1]: inhibition

SMILES: CCCN1CCC[C@H]2Cc3nc(N)ccc3C[C@@H]21 (relative stereo) [Compound 7, trans-(±)-2-amino-6-propyl-5,5a,6,7,8,9,9a,10-octahydropyrido [2-3 g] quinoline]
- reduction of paw swelling (DTH) ([1]; 10 mg/kg): statistically significant

SMILES: CCCN1C[C@H](CSC)C[C@@H]2c3cccc4[nH]cc(c34)C[C@H]21 [Compound 2]
- minimal effective dose ([4]; read-out: dosage giving statistically significant decrease in paw volume, FIG. 1 Panel A): ≥ 3 mg/kg
- minimal effective dose ([4]; read-out: dosage giving statistically significant decrease in paw weight, FIG. 1 Panel B): ≥ 3 mg/kg
- % Inhibition [2, 12]: 60%
- Paw Weight Difference [2, 12]: 0.290 ± 0.028 g
- % Inhibition [2, 13]: 60%
- Paw Weight Difference [2, 13]: 0.295 ± 0.019 g
- % Inhibition [2, 14]: 60%
- Paw Weight Difference [2, 14]: 0.292 ± 0.017 g
- % Inhibition [2, 15]: 60%
- Paw Weight Difference [2, 15]: 0.293 ± 0.018 g
- % Inhibition [2, 16]: 1%
- Paw Weight Difference [2, 16]: 0.820 ± 0.033 g
- % Inhibition [2, 17]: 0%
- Paw Weight Difference [2, 17]: 1.009 ± 0.056 g
- % Inhibition [2, 6]: 11%
- Paw Weight Difference [2, 6]: 0.751 ± 0.045 g
- % Inhibition [2, 7]: 63%
- Paw Weight Difference [2, 7]: 0.313 ± 0.045 g
- anti-inflammatory properties ([2]; Tables 1 and 2): significant anti-inflammatory properties
- action at α adrenergic receptors (α adrenergic receptors): act at α adrenergic receptors
- effect on 5-HT induced paw swelling [5]: diminish 5-HT induced paw swelling
- effect on symptoms of Parkinsonism (Parkinsonism): effective in the treatment of some symptoms of Parkinsonism
- D-2 dopamine agonist activity (D-2 dopamine): D-2 dopamine agonists
- reduction of paw swelling (DTH) ([1]; 1 mg/kg): significantly reduced paw swelling
- reduction of paw swelling (DTH) ([1]; 3 mg/kg): significantly reduced paw swelling
- reduction of paw swelling (DTH) ([1]; 10 mg/kg): significantly reduced paw swelling

SMILES: CCCN1C[C@H](CSC)C[C@@H]2c3cccc4[nH]nc(c34)C[C@H]21 [Compound 4, D-2-aza-6-n-propyl-8β-methylthiomethyl ergoline]
- reduction of paw swelling (DTH) ([1]; 1 mg/kg): reduced paw swelling
- reduction of paw swelling (DTH) ([1]; 3 mg/kg): statistically significant
- reduction of paw swelling (DTH) ([1]; 10 mg/kg): statistically significant

SMILES: CCCN1CCC[C@H]2Cc3nc(N)sc3C[C@@H]21 (racemic) [Compound 6, trans-(±)-2-amino-5-n-propyl-4,4a,5,6,7,8,8a,9-octahydrothiazolo [4,5-g] quinoline]
- reduction of paw swelling (DTH) ([1]; 10 mg/kg): statistically significant

SMILES: O=c1[nH]c2ccccc2n1CCCN1CCC(n2c(=O)[nH]c3cc(Cl)ccc32)CC1 [Domperidone]
- effect on anti-inflammatory activity of D-1-isopropyl-6-n-propyl-8β-methylthiomethyl ergoline ([3]; FIG. 9 Panel B): reversed the anti-inflammatory activity

From US5416090A, “Method of treating inflammation” (priority 1992, dated 1995)
